The text below walks through data of US11161828B2, “Class of bisquaternary ammonium compound as well as the preparative method and the use thereof” (WEST CHINA HOSPITAL, SICHUAN UNIVERSITY, priority 2018, dated 2021).

Some results are limits rather than exact numbers.

Assay [1] relates to Male New Zealand white rabbits. Put plainly: Muscle relaxation test in anesthetized rabbits with neuromuscular transmission monitor (TOF). Type of assay: in vivo, rabbit. Particulars: for ED (2 x ED95): Oryctolagus cuniculus; for ED (2 x ED95) / 2 × ED95: intravenous injection, propofol general anesthesia; for Onset time / Recovery time: i.v. 2×ED95 dose; for Onset time: onset = TOF=0; for Recovery time: recovery of muscle relaxation = TOF=90%. As for the experimental part:
Male New Zealand white rabbits weighing 2-3.5 kg were used as experimental animals for muscle relaxation test. The specific procedures were as follows: propofol emulsion was used to induce and maintain general anesthesia (induction dose: 10 mg/kg; maintenance dose: […]). Tracheal intubation was carried out and respiratory support was used.

A further assay relates to human body. Particulars: cited from earlier work; for duration of muscle relaxation / action time: after single administration, clinical use.

In assay [1] (iv), `COc1ccc(C[N+](C)(CCCCOC(=O)OC(C)OC(=O)C[N+]2(Cc3ccc(OC)c(OC)c3)CCCCC2)Cc2ccc(OC)c(OC)c2)cc1OC` (stereo not drawn) [Compound 24] had an ED (2 x ED95) of 1.4 mg/kg. In addition, in assay [1], the Onset time is listed as less than 40 s and the Recovery time came to 8.4 ± 1.9 min.

Consider `C[N+](CCOC(=O)OCOC(=O)CCC[N+]1(Cc2ccc([N+](=O)[O-])cc2)CCCCC1)(Cc1ccc(Br)cc1)Cc1ccc([N+](=O)[O-])cc1` (stereo not drawn) [Compound 15], for which, in assay [1], the ED (2 x ED95) is 1.9 mg/kg, the Onset time was less than 40 s and the Recovery time is listed as 5.3 ± 2.1 min.

With `C[N+](CCOC(=O)OCOC(=O)CCC[N+]1(Cc2ccccc2)CCCCC1)(Cc1ccccc1)Cc1ccccc1` [Compound 20], in assay [1], the ED (2 x ED95) is 2.4 mg/kg, the Onset time was less than 40 s and the Recovery time came to 6.9 ± 2.5 min.

Take `COc1ccc(C[N+](C)(Cc2ccc(OC)c(OC)c2)CC(C)OC(=O)OC(C)OC(=O)CCC[N+]2(Cc3ccc(OC)c(OC)c3)CCCCC2)cc1OC` (stereo not drawn) [Compound 23]: in assay [1] (iv), the ED (2 x ED95) came out at 1.2 mg/kg. Moreover, in assay [1], the Onset time is less than 40 s and the Recovery time is given as 7.8 ± 2.4 min.

In assay [1], `C[N+](CCOC(=O)OCOC(=O)CCC[N+]1(Cc2ccc([N+](=O)[O-])cc2)CCCCC1)(Cc1ccccc1)Cc1ccccc1` [Compound 19] returned an ED (2 x ED95) of 2.2 mg/kg, an Onset time of less than 40 s and a Recovery time of 7.1 ± 1.2 min.

`COc1ccc(C[N+](C)(CCCC(C)OC(=O)OC(C)OC(=O)C[N+]2(Cc3ccc(OC)c(OC)c3)CCCCC2)Cc2ccc(OC)c(OC)c2)cc1OC` (stereo not drawn) [Compound 25] registered an ED (2 x ED95) in assay [1] (iv) of 1.4 mg/kg. In assay [1], the Onset time is less than 40 s and the Recovery time is 8.1 ± 2.9 min.

As for `CC(OC(=O)CCC[N+]1(Cc2ccc([N+](=O)[O-])cc2)CCCCC1)OC(=O)OCC[N+](C)(Cc1ccccc1)Cc1ccc([N+](=O)[O-])cc1` (stereo not drawn) [Compound 14], in assay [1], the ED (2 x ED95) turned out to be 2.4 mg/kg, the Onset time is less than 40 s and the Recovery time amounted to 4.2 ± 1.2 min.

In assay [1], `C[N+](CCOC(=O)OCOC(=O)CCC[N+]1(Cc2ccc(Br)cc2)CCCCC1)(Cc1ccc(Br)cc1)Cc1ccc(Br)cc1` [Compound 7] returned an ED (2 x ED95) of 1.2 mg/kg, an Onset time of less than 40 s and a Recovery time of 5.2 ± 2.1 min.

On to `COc1ccc(C[C@@H]2c3cc(OC)c(OC)cc3CC[N@+]2(C)CCC(=O)OCCCCCOC(=O)CC[N@@+]2(C)CCc3cc(OC)c(OC)cc3[C@H]2Cc2ccc(OC)c(OC)c2)cc1OC` [Cisatracurium, reference compound], for which, in assay [1], the ED (2 x ED95) is 0.08 mg/kg, the Onset time is given as greater than 120 s and the Recovery time turned out to be 17.6 ± 3.2 min.

Take `CC(OC(=O)CCC[N+]1(Cc2ccc(Cl)cc2Cl)CCCCC1)OC(=O)OCC[N+](C)(Cc1ccc(Cl)cc1)Cc1ccc(Cl)c(Cl)c1` (stereo not drawn) [Compound 9]: the ED (2 x ED95) in assay [1] (iv) was determined as 0.6 mg/kg. Also, in assay [1], the Onset time was less than 40 s and the Recovery time is recorded as 4.2 ± 1.1 min.

In assay [1], `C[N+](CCOC(=O)OCOC(=O)CCC[N+]1(Cc2c(F)c(F)c(F)c(F)c2F)CCCCC1)(Cc1c(F)c(F)c(F)c(F)c1F)Cc1c(F)c(F)c(F)c(F)c1F` [Compound 6] showed an ED (2 x ED95) of 0.9 mg/kg, an Onset time of less than 40 s and a Recovery time of 5.1 ± 2.1 min.

In assay [1], `C[N+](CCCCOC(=O)OCOC(=O)C[N+]1(Cc2ccc([N+](=O)[O-])cc2)CCCCC1)(Cc1ccc([N+](=O)[O-])cc1)Cc1ccc(Cl)cc1Cl` (stereo not drawn) [Compound 21] yielded an ED (2 x ED95) of 4 mg/kg, an Onset time of less than 40 s and a Recovery time of 5.1 ± 1.1 min.

In assay [1], `C[N+](CCOC(=O)OCOC(=O)CCC[N+]1(Cc2ccc([N+](=O)[O-])cc2)CCCCC1)(Cc1ccc([N+](=O)[O-])cc1)Cc1ccc(Cl)c(Cl)c1` (stereo not drawn) [Compound 16] gave an ED (2 x ED95) of 2.2 mg/kg, an Onset time of less than 40 s and a Recovery time of 5.2 ± 1.1 min.

Regarding `CC(OC(=O)CCC[N+]1(Cc2ccc(Cl)cc2Cl)CCCCC1)OC(=O)OCC[N+](C)(Cc1ccc(Cl)cc1)Cc1ccc(Cl)c(Cl)c1` (stereo not drawn) [Compound 11], in assay [1], the Onset time was less than 40 s, the Recovery time is given as 6.7 ± 2.6 min and the “2 × ED95” value worked out at 0.5 mg/kg.

In assay [1], `C[N+](CCOC(=O)OCOC(=O)CCC[N+]1(Cc2ccccc2)CCCCC1)(Cc1ccccc1)Cc1ccc([N+](=O)[O-])cc1` (stereo not drawn) [Compound 18] yielded an ED (2 x ED95) of 1.9 mg/kg, an Onset time of less than 40 s and a Recovery time of 7.2 ± 2.7 min.

For `C[N+](CCOC(=O)OCOC(=O)CCC[N+]1(Cc2ccc([N+](=O)[O-])cc2)CCCCC1)(Cc1ccc([N+](=O)[O-])cc1)Cc1ccc([N+](=O)[O-])cc1` [Compound 12], in assay [1], the ED (2 x ED95) turned out to be 1.8 mg/kg, the Onset time is less than 40 s and the Recovery time is on record as 8.1 ± 0.2 min.

Compound `CC(C[N+](C)(Cc1ccccc1)Cc1ccc([N+](=O)[O-])cc1)OC(=O)OCOC(=O)CCC[N+]1(Cc2ccc([N+](=O)[O-])cc2)CCCCC1` (stereo not drawn) [Compound 22] had an ED (2 x ED95) in assay [1] (iv) of 1.2 mg/kg. In assay [1], this compound had an Onset time of less than 40 s and a Recovery time of 6.2 ± 1.4 min.

In assay [1], `C[N+](CCOC(=O)OCOC(=O)CCC[N+]1(Cc2ccc(Cl)cc2Cl)CCCCC1)(Cc1ccc(Cl)cc1)Cc1ccc(Cl)c(Cl)c1` (stereo not drawn) [Compound 1] returned an ED (2 x ED95) of 0.5 mg/kg, an Onset time of less than 40 s and a Recovery time of 4.2 ± 1.1 min.

In the case of `C[N+](CCOC(=O)OCOC(=O)CCC[N+]1(Cc2c(F)cc(F)cc2F)CCCCC1)(Cc1ccc(F)cc1)Cc1c(F)cc(F)cc1F` (stereo not drawn) [Compound 4], in assay [1], the ED (2 x ED95) turned out to be 0.4 mg/kg, the Onset time is given as less than 40 s and the Recovery time was found to be 4.4 ± 0.5 min.

As to `C[N+](C)(C)CCOC(=O)CCC(=O)OCC[N+](C)(C)C` [Succinylcholine, reference compound], the “action time (lasts for)” value in the assay on human body (in the human body) is 10 min. The ED (2 x ED95) in assay [1] (iv) turned out to be 1.8 mg/kg. Further, in assay [1], the Onset time is less than 40 s and the Recovery time is recorded as 12.3 ± 4.1 min.

In the case of micuronium, the “duration of muscle relaxation / action time” value in the assay on human body is 15 to 20 min.

Take `C[N+](CCOC(=O)OCOC(=O)CCC[N+]1(Cc2ccccc2Br)CCCCC1)(Cc1ccccc1Br)Cc1ccccc1Br` [Compound 8]: in assay [1] (iv), the ED (2 x ED95) was determined as 1.2 mg/kg. In assay [1], this compound had an Onset time of less than 40 s and a Recovery time of 7.2 ± 1.8 min.

In assay [1], `C[N+](CCOC(=O)OCOC(=O)CCC[N+]1(Cc2ccc([N+](=O)[O-])cc2)CCCCC1)(Cc1ccccc1)Cc1ccc([N+](=O)[O-])cc1` (stereo not drawn) [Compound 13] yielded an ED (2 x ED95) of 2.1 mg/kg, an Onset time of less than 40 s and a Recovery time of 7.9 ± 1.9 min.

`CC(OC(=O)CCC[N+]1(Cc2ccc(Cl)cc2Cl)CCCCC1)OC(=O)OCC[N+](C)(Cc1ccc(Cl)cc1)Cc1ccc(Cl)c(Cl)c1` (stereo not drawn) [Compound 10]: in assay [1], the Onset time is less than 40 s, the Recovery time came out at 4.2 ± 0.9 min and the “2 × ED95” value came out at 0.7 mg/kg.

In assay [1], `C[N+](CCOC(=O)OCOC(=O)CCC[N+]1(Cc2ccc(Br)c(Br)c2)CCCCC1)(Cc1ccc(Br)cc1)Cc1cccc(Cl)c1Cl` (stereo not drawn) [Compound 3] gave an ED (2 x ED95) of 1.3 mg/kg, an Onset time of less than 40 s and a Recovery time of 3.8 ± 0.4 min.

As for `C[N+](CCOC(=O)OCOC(=O)CCC[N+]1(Cc2ccc([N+](=O)[O-])cc2[N+](=O)[O-])CCCCC1)(Cc1ccc([N+](=O)[O-])cc1)Cc1ccc([N+](=O)[O-])cc1` [Compound 5], in assay [1], the ED (2 x ED95) is 0.4 mg/kg, the Onset time is reported as less than 40 s and the Recovery time stood at 6.2 ± 1.4 min.

Consider `CC(=O)O[C@H]1C[C@@H]2CC[C@@H]3[C@H](CC[C@@]4(C)[C@H]3C[C@H]([N+]3(C)CCCCC3)[C@@H]4OC(C)=O)[C@@]2(C)C[C@@H]1[N+]1(C)CCCCC1` [pancuronium], for which the “duration of muscle relaxation / action time” value in the assay on human body is greater than 60 min.
